Test results: DBAASP
Values after ≈ are worked out from the molar mass of the structure shown.

How the values were obtained:
Assay in all cases: ≥ marks a high value that may be exact or a test limit, other limits are often not marked, values filed in µg/mL are converted to µM
[1] = system: Escherichia coli
[2] = system: Staphylococcus aureus
[3] = system: Candida albicans ATCC 90028
[4] = system: Escherichia coli ATCC 25922
[5] = system: Pseudomonas aeruginosa ATCC 27853
[6] = system: Staphylococcus aureus ATCC 29213
[7] = system: Enterococcus faecalis ATCC 29212
[8] = system: Staphylococcus aureus ATCC 25923
[9] = system: Escherichia coli UB1005
[10] = system: Pseudomonas aeruginosa PAO1
[11] = system: Klebsiella pneumoniae ATCC 700603

Row | MIC [1] [µM] | MIC [2] [µM] | MIC [4] [µM] | MIC [6] [µM] | SMILES | further results
1 | 25 (≈ 51.3 µg/mL) | > 100 |  |  | CC[C@H](C)[C@H](NC(=O)[C@H](CCCCN)NC(=O)[C@H](CCCCN)NC(=O)CNC(=O)[C@@H](NC(=O)CNC(=O)[C@H](Cc1ccccc1)NC(=O)[C@H](CC(N)=O)NC(=O)CNC(=O)[C@H](CO)NC(=O)[C@H](CC(C)C)NC(=O)[C@@H](NC(=O)[C@@H](N)CO)[C@@H](C)CC)C(C)C)C(=O)N[C@H](C(=O)N[C@H]1CSSC[C@@H](C(=O)O)NC(=O)[C@H](CC(C)C)NC(=O)CNC(=O)[C@H](CO)NC(=O)[C@H](CC(C)C)NC(=O)CNC1=O)C(C)C [SILSGNFGVGKKIVCGLSGLC] | 
2 | 2.4 (≈ 5.6 µg/mL) | 4.8 (≈ 11.2 µg/mL) |  |  | CC[C@H](C)[C@H](NC(=O)[C@H](Cc1c[nH]c2ccccc12)NC(=O)[C@H](CCCCN)NC(=O)[C@@H](NC(=O)[C@H](CC(C)C)NC(=O)[C@H](CCCCN)NC(=O)CNC(=O)[C@@H](NC(=O)[C@@H](NC(=O)[C@@H](N)CO)[C@@H](C)O)[C@@H](C)CC)C(C)C)C(=O)N[C@H](C(=O)N[C@@H](CCCCN)C(=O)N[C@H](C(=O)N[C@H](C(=O)N[C@@H](CC(N)=O)C(=O)N[C@@H](CCCCN)C(=O)N[C@@H](Cc1ccccc1)C(=O)N[C@H](C(=O)N[C@@H](CCCCN)C(=O)N[C@@H](CCCCN)C(=O)O)[C@@H](C)O)C(C)C)[C@@H](C)O)[C@@H](C)CC [STIGKLVKWIIKTVNKFTKK] | 
3 |  |  | 5 (≈ 7.86 µg/mL) | 10 (≈ 15.7 µg/mL) | CC[C@H](C)[C@H](NC(=O)[C@H](CCCCN)NC(=O)[C@H](CC(=O)O)NC(=O)[C@H](Cc1ccccc1)NC(=O)[C@H](CC(C)C)NC(=O)[C@@H](N)CCCN=C(N)N)C(=O)N[C@@H](CCCN=C(N)N)C(=O)N[C@@H](CCC(N)=O)C(=O)N[C@H](C(=O)N[C@H](C(=O)N[C@@H](CCCN=C(N)N)C(=O)N[C@@H](CCCCN)C(=O)O)[C@@H](C)CC)C(C)C [RLFDKIRQVIRK] | MIC [3]: 5 µM (≈ 7.86 µg/mL); MIC [5]: 10 µM (≈ 15.7 µg/mL)
4 | 25 (≈ 42.5 µg/mL) | 6 (≈ 10.2 µg/mL) |  |  | CC[C@H](C)[C@H](NC(=O)[C@H](CCCCN)NC(=O)[C@H](CC(C)C)NC(=O)[C@H](C)NC(=O)[C@H](CCCCN)NC(=O)CNC(=O)[C@H](CC(C)C)NC(=O)[C@H](CC(C)C)NC(=O)[C@H](CO)NC(=O)CNC(=O)[C@H](Cc1ccccc1)NC(=O)CN)C(=O)NCC(=O)N[C@H](C(=O)N[C@@H](CC(N)=O)C(=O)N[C@@H](CC(C)C)C(=O)N[C@@H](CC(C)C)C(N)=O)[C@@H](C)O [GFGSLLGKALKIGTNLL] | 
5 |  |  | 5.6 (≈ 14.9 µg/mL) |  | CC[C@H](C)[C@H](NC(=O)[C@H](CCCCN)NC(=O)[C@H](CO)NC(=O)[C@H](Cc1c[nH]c2ccccc12)NC(=O)[C@H](CC(C)C)NC(=O)CN)C(=O)N[C@@H](CCCCN)C(=O)N[C@@H](CCC(=O)O)C(=O)N[C@@H](C)C(=O)N[C@@H](C)C(=O)N[C@@H](CCCCN)C(=O)N[C@H](C(=O)N[C@@H](C)C(=O)NCC(=O)N[C@@H](CC(C)C)C(=O)N[C@@H](CCSC)C(=O)N[C@@H](C)C(=O)N[C@@H](CCSC)C(=O)NCC(=O)N[C@@H](Cc1ccccc1)C(=O)N[C@H](C(=O)N[C@@H](CC(N)=O)C(=O)N[C@@H](CC(=O)O)C(=O)N[C@@H](CCSC)C(=O)N[C@H](C(=O)O)C(C)C)C(C)C)[C@@H](C)O [GLWSKIKEAAKTAGLMAMGFVNDMV] | MIC [7]: 11 µM (≈ 29.4 µg/mL); MIC [5]: 22 µM (≈ 58.7 µg/mL); MIC [8]: 22 µM (≈ 58.7 µg/mL)
6 |  |  |  |  | CC(C)C[C@H](NC(=O)[C@H](Cc1ccc(O)cc1)NC(=O)[C@@H]1CCCN1C(=O)[C@@H]1CCCN1C(=O)[C@H](CCCCN)NC(=O)[C@H](CC(=O)O)NC(=O)[C@@H](N)C(C)C)C(=O)N1CCC[C@H]1C(=O)N[C@@H](CCCN=C(N)N)C(=O)N1CCC[C@H]1C(=O)N[C@@H](CCCN=C(N)N)C(=O)N1CCC[C@H]1C(=O)N1CCC[C@H]1C(=O)N[C@@H](CCCN=C(N)N)C(=O)N[C@@H](CCCN=C(N)N)C(=O)N[C@@H](Cc1ccccc1)C(=O)N[C@@H](Cc1ccc(O)cc1)C(=O)N[C@@H](CC(N)=O)C(=O)N[C@@H](CCCN=C(N)N)C(N)=O [VDKPPYLPRPRPPRRFYNR] | MIC [9]: 0.364 µM (≈ 0.883 µg/mL); MIC [10]: 106 µM (≈ 256 µg/mL); MIC [8]: 6.6 µM (≈ 16 µg/mL)
7 |  |  | 26.3 (≈ 63.9 µg/mL) |  | CC[C@H](C)[C@H](NC(=O)[C@@H](NC(=O)[C@@H]1CCCN1C(=O)[C@@H](NC(=O)[C@@H]1CCCN1C(=O)[C@H](CCCCN)NC(=O)[C@H](CCCCN)NC(=O)[C@H](CO)NC(=O)CN)C(C)C)[C@@H](C)CC)C(=O)N[C@@H](Cc1ccc(O)cc1)C(=O)N[C@H]1CSSC[C@@H](C(=O)N[C@@H](CCC(N)=O)C(=O)N[C@@H](CCCN=C(N)N)C(=O)N[C@@H](CCSC)C(=O)O)NC(=O)[C@H](CCCCN)NC(=O)[C@H](C)NC(=O)[C@H](CO)NC(=O)[C@H](CCCN=C(N)N)NC(=O)[C@H](CCCN=C(N)N)NC(=O)[C@H](CC(N)=O)NC1=O [GSKKPVPIIYCNRRSAKCQRM] | MIC [11]: 26.3 µM (≈ 63.9 µg/mL)
8 | 40 (≈ 71.9 µg/mL) |  | 10 (≈ 18 µg/mL) | > 40 | CC(C)C[C@H](NC(=O)[C@H](CCCCN)NC(=O)[C@H](CC(C)C)NC(=O)[C@H](CC(C)C)NC(=O)[C@H](CCCCN)NC(=O)[C@H](CCCCN)NC(=O)[C@@H]1CSSC[C@H](N)C(=O)N[C@@H](CCCCN)C(=O)N[C@@H](CCCCN)C(=O)N[C@@H](CC(C)C)C(=O)N[C@@H](CC(C)C)C(=O)N[C@@H](CCCCN)C(=O)N[C@@H](CC(C)C)C(=O)N1)C(=O)N[C@@H](C)C(=O)NCC(=O)O [CKKLLKLCKKLLKLAG] | 
9 |  |  |  |  | CC(C)C[C@H](NC(=O)[C@H](Cc1ccc(O)cc1)NC(=O)[C@@H]1CCCN1C(=O)[C@@H]1CCCN1C(=O)[C@H](CCCCN)NC(=O)[C@@H]1CCCN1C(=O)[C@@H](N)C(C)C)C(=O)N1CCC[C@H]1C(=O)N[C@@H](CCCN=C(N)N)C(=O)N1CCC[C@H]1C(=O)N[C@@H](CCCN=C(N)N)C(=O)N1CCC[C@H]1C(=O)N1CCC[C@H]1C(=O)N[C@@H](CCCN=C(N)N)C(=O)N[C@@H](CCCN=C(N)N)C(=O)N[C@@H](Cc1ccccc1)C(=O)N[C@@H](Cc1ccc(O)cc1)C(=O)N[C@@H](CC(N)=O)C(=O)N[C@@H](Cc1cnc[nH]1)C(N)=O [VPKPPYLPRPRPPRRFYNH] | MIC [9]: 16.8 µM (≈ 40 µg/mL); MIC [10]: 107 µM (≈ 256 µg/mL); MIC [8]: 3.35 µM (≈ 8 µg/mL)
10 |  |  | 20 (≈ 39.8 µg/mL) | 40 (≈ 79.5 µg/mL) | NCC(=O)N[C@@H](CCCN=C(N)N)C(=O)N[C@@H](CCCN=C(N)N)C(=O)N1CCC[C@H]1C(=O)N[C@@H](CCCN=C(N)N)C(=O)N1CCC[C@H]1C(=O)N[C@@H](CCCN=C(N)N)C(=O)N1CCC[C@H]1C(=O)N[C@@H](CCCN=C(N)N)C(=O)N1CCC[C@H]1C(=O)N[C@@H](Cc1c[nH]c2ccccc12)C(=O)N[C@@H](Cc1c[nH]c2ccccc12)C(=O)N[C@@H](Cc1c[nH]c2ccccc12)C(=O)N[C@@H](Cc1c[nH]c2ccccc12)C(N)=O [GRRPRPRPRPWWWW] | MIC [5]: 20 µM (≈ 39.8 µg/mL)
11 |  |  | 2.5 (≈ 4.59 µg/mL) | > 40 | CC(C)C[C@H](NC(=O)[C@H](CCCCN)NC(=O)[C@H](CC(C)C)NC(=O)[C@H](CC(C)C)NC(=O)[C@H](CCCCN)NC(=O)[C@H](CCCCN)NC(=O)[C@H](CCC(N)=O)NC(=O)[C@H](CC(C)C)NC(=O)[C@H](CCCCN)NC(=O)[C@H](CC(C)C)NC(=O)[C@H](CC(C)C)NC(=O)[C@H](CCCCN)NC(=O)[C@H](CCCCN)NC(=O)[C@@H](N)CC(C)C)C(=O)N[C@@H](C)C(=O)NCC(=O)O [LKKLLKLQKKLLKLAG] | 
12 | 25 (≈ 40.2 µg/mL) | 12.5 (≈ 20.1 µg/mL) |  |  | CC[C@H](C)[C@H](NC(=O)CN)C(=O)NCC(=O)N[C@@H](CO)C(=O)N[C@@H](CC(C)C)C(=O)N[C@@H](CC(C)C)C(=O)N[C@@H](C)C(=O)N[C@@H](CCCCN)C(=O)N[C@@H](C)C(=O)N[C@@H](C)C(=O)N[C@@H](CCCCN)C(=O)N[C@@H](CC(C)C)C(=O)NCC(=O)N[C@@H](C)C(=O)N[C@@H](CC(N)=O)C(=O)N[C@@H](CC(C)C)C(=O)N[C@@H](CC(C)C)C(N)=O [GIGSLLAKAAKLGANLL] | 
13 |  |  | 10 (≈ 15 µg/mL) | 40 (≈ 59.8 µg/mL) | CC[C@H](C)[C@H](NC(=O)[C@H](CCCN=C(N)N)NC(=O)[C@H](CCC(N)=O)NC(=O)[C@@H](NC(=O)[C@@H](NC(=O)[C@H](CCCN=C(N)N)NC(=O)[C@@H](N)CCCCN)[C@@H](C)CC)C(C)C)C(=O)N[C@@H](CCCCN)C(=O)N[C@@H](CC(=O)O)C(=O)N[C@@H](C)C(=O)N[C@@H](CC(C)C)C(=O)N[C@@H](CCCN=C(N)N)C(=O)O [KRIVQRIKDALR] | MIC [3]: 20 µM (≈ 29.9 µg/mL); MIC [5]: 20 µM (≈ 29.9 µg/mL)
14 |  |  | 20 (≈ 32.6 µg/mL) | > 40 | CC[C@H](C)[C@H](NC(=O)[C@H](CCCN=C(N)N)NC(=O)[C@H](CCC(N)=O)NC(=O)[C@@H](NC(=O)[C@@H](NC(=O)[C@H](CCCN=C(N)N)NC(=O)[C@H](CCCCN)NC(=O)[C@@H](N)Cc1ccccc1)[C@@H](C)CC)C(C)C)C(=O)N[C@@H](CCCCN)C(=O)N[C@@H](CC(=O)O)C(=O)NCC(=O)N[C@@H](CC(C)C)C(=O)N[C@@H](CCCN=C(N)N)C(=O)O [FKRIVQRIKDGLR] | 
15 | 2.1 (≈ 4.5 µg/mL) | 3.7 (≈ 7.94 µg/mL) |  |  | CC[C@H](C)[C@H](N)C(=O)NCC(=O)N[C@@H](CCCCN)C(=O)N[C@@H](CC(C)C)C(=O)N[C@H](C(=O)N[C@@H](CCCCN)C(=O)N[C@@H](Cc1c[nH]c2ccccc12)C(=O)N[C@H](C(=O)N[C@H](C(=O)N[C@@H](CCCCN)C(=O)N[C@H](C(=O)N[C@H](C(=O)N[C@@H](CC(N)=O)C(=O)N[C@@H](CCCCN)C(=O)N[C@@H](Cc1ccccc1)C(=O)N[C@H](C(=O)N[C@@H](CCCCN)C(=O)N[C@@H](CCCCN)C(=O)O)[C@@H](C)O)C(C)C)[C@@H](C)O)[C@@H](C)CC)[C@@H](C)CC)C(C)C [IGKLVKWIIKTVNKFTKK] | 
